Patent publication US12077503B2, “Substituted cyclic amides and their use as herbicides” (FMC CORPORATION, priority 2015, dated 2024)

Assays:
Type in all cases: in vivo
[1] = tested on: ragweed (common ragweed, Ambrosia elatior); test: Test A postemergence; settings: Ambrosia artemisiifolia, post-emergence, 240 h, Postemergence, read-out: Plant response rating, Ragweed
How it was run: (§1)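 Preemergence soil spray on seeded pots or post-emergence spray on 1–2 leaf plants, in loam–sand blend. Greenhouse ~10 d. Visual rating 0–100 against untreated plants.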

[2] = tested on: blackgrass (Alopecurus myosuroides); test: Test A postemergence; settings: Alopecurus myosuroides, post-emergence, 240 h, Postemergence, read-out: Plant response rating, Blackgrass
How it was run: as §1

Kochia (Kochia scoparia) [3] = test: Test A postemergence; settings: Bassia scoparia, post-emergence, 240 h, Postemergence, read-out: Plant response rating, Kochia
How it was run: as §1

[4] = tested on: wheat (Triticum aestivum); test: Test A postemergence; settings: Triticum aestivum, post-emergence, 240 h, Postemergence, read-out: Plant response rating, Wheat
How it was run: as §1

[5] = tested on: ryegrass, Italian (Italian ryegrass, Lolium multiflorum); test: Test A postemergence; settings: Lolium multiflorum, post-emergence, 240 h, Postemergence, read-out: Plant response rating, Ryegrass, Italian
How it was run: as §1

[6] = tested on: ragweed (common ragweed, Ambrosia elatior); test: Test A preemergence; settings: Ambrosia artemisiifolia, pre-emergence, 240 h, 0 to 100 scale (0 no effect, 100 complete control), read-out: Plant response rating, Ragweed
How it was run: as §1

Kochia (Kochia scoparia) [7] = test: Test A preemergence; settings: Bassia scoparia, pre-emergence, 240 h, 0 to 100 scale (0 no effect, 100 complete control), read-out: Plant response rating, Kochia
How it was run: as §1

[8] = tested on: pigweed (Amaranthus retroflexus); test: Test A preemergence; settings: Amaranthus retroflexus, pre-emergence, 240 h, 0 to 100 scale (0 no effect, 100 complete control), read-out: Plant response rating, Pigweed
[9] = tested on: barnyardgrass (Echinochloa crus-galli); test: Test A preemergence; settings: Echinochloa crus-galli, pre-emergence, 240 h, 0 to 100 scale (0 no effect, 100 complete control), read-out: Plant response rating, Barnyardgrass
How it was run: as §1

[10] = tested on: ryegrass, Italian (Italian ryegrass, Lolium multiflorum); test: Test A preemergence; settings: Lolium multiflorum, pre-emergence, 240 h, 0 to 100 scale (0 no effect, 100 complete control), read-out: Plant response rating, Ryegrass, Italian
How it was run: as §1

[11] = tested on: giant foxtail (Setaria faberii); test: Test A preemergence; settings: Setaria faberi, pre-emergence, 240 h, 0 to 100 scale (0 no effect, 100 complete control), read-out: Plant response rating, Foxtail, Giant
How it was run: as §1

rice (Oryra sativa) = test: Test B flooded paddy test; settings: Oryza sativa, 360 h, Flood, 250 g ai/ha; visually evaluated after 13 to 15 d; read-out: Plant response rating, Rice (0 to 100 scale where 0 is no effect and 100 is complete control)
How it was run: (§2)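 Response scored visually against untreated controls, 0 = no effect and 100 = complete control, 13–15 d after treatment in the greenhouse. Compounds added to paddy water held 3 cm above soil surface. Treatment given at 2-leaf stage.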

[12] = tested on: ducksalad (Heteranthera limosa); test: Test B flooded paddy test; settings: Heteranthera limosa, 360 h, Flood, 250 g ai/ha; visually evaluated after 13 to 15 d; read-out: Plant response rating, Ducksalad (0 to 100 scale where 0 is no effect and 100 is complete control)
How it was run: as §2

[13] = tested on: sedge, umbrella (small-flower umbrella sedge, Cyperus difformis); test: Test B flooded paddy test; settings: Cyperus difformis, 360 h, Flood, 250 g ai/ha; visually evaluated after 13 to 15 d; read-out: Plant response rating, Sedge, Umbrella (0 to 100 scale where 0 is no effect and 100 is complete control)
How it was run: as §2

[14] = tested on: barnyardgrass (Echinochloa crus-galli); test: Test B flooded paddy test; settings: Echinochloa crus-galli, 360 h, Flood, 250 g ai/ha; visually evaluated after 13 to 15 d; read-out: Plant response rating, Barnyardgrass (0 to 100 scale where 0 is no effect and 100 is complete control)
How it was run: as §2

[15] = 125 g ai/ha, visual injury after approx. 10 d, 0 to 100 scale, 0 no effect, 100 complete control
[16] = 500 g ai/ha, visual injury, 0 to 100 scale (0 no effect, 100 complete control), approx. 10 d

CN1CC[C@H](c2cccc(C(F)(F)F)c2)[C@@H](C(=O)Nc2ccc(F)c(F)c2F)C1=O [Compound 1395]
20%: plant injury at 125 g/ha [4, 15] | pest or weed control at 125 g/ha [5, 15] | pest or weed control at 500 g/ha [5, 16]
80%: pest or weed control at 250 g/ha [12]
0%: pest or weed control at 125 g/ha [1, 15] | pest or weed control at 500 g/ha [1, 16] | pest or weed control at 500 g/ha [2, 16] | pest or weed control at 125 g/ha (Kochia (Kochia scoparia) [3]; [15]) | pest or weed control at 500 g/ha (Kochia (Kochia scoparia) [3]; [16]) | pest or weed control at 500 g/ha ([6]; 500 g ai/ha, preemergence) | pest or weed control at 125 g/ha ([6]; Preemergence, 125 g ai/ha) | pest or weed control at 500 g/ha (Kochia (Kochia scoparia) [7]; 500 g ai/ha, preemergence) | pest or weed control at 125 g/ha (Kochia (Kochia scoparia) [7]; Preemergence, 125 g ai/ha) | pest or weed control at 500 g/ha ([8]; 500 g ai/ha, preemergence) | pest or weed control at 125 g/ha ([8]; Preemergence, 125 g ai/ha) | pest or weed control at 250 g/ha [13]
70%: pest or weed control at 125 g/ha [2, 15]
90%: pest or weed control at 500 g/ha ([9]; 500 g ai/ha, preemergence) | pest or weed control at 125 g/ha ([9]; Preemergence, 125 g ai/ha) | pest or weed control at 500 g/ha ([11]; 500 g ai/ha, preemergence) | pest or weed control at 125 g/ha ([11]; Preemergence, 125 g ai/ha) | pest or weed control at 250 g/ha [14]
50%: pest or weed control at 125 g/ha ([10]; Preemergence, 125 g ai/ha)
40%: plant injury at 500 g/ha [4, 16] | pest or weed control at 500 g/ha ([10]; 500 g ai/ha, preemergence)
10%: pest or weed control at 250 g/ha (rice (Oryra sativa))
